Measured values: PubChem BioAssay (NCI)
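Step 1: Grow cells in 96-well plates. Step 2: Expose to compound for 48 hours at 5 concentrations. Step 3: Interpolate endpoints linearly; if unreached, use highest concentration. TGI is the concentration that stops growth completely.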

Tests used:
Assay in all cases: inhibition of tumour cell growth, NCI panel, 48 h
ACHN renal = system: ACHN renal
CCRF-CEM leukemia = system: CCRF-CEM leukemia
HCT-15 colon = system: HCT-15 colon
HL-60(TB) leukemia = system: HL-60(TB) leukemia
HT29 colon = system: HT29 colon
IGROV1 ovarian = system: IGROV1 ovarian
MALME-3M melanoma = system: MALME-3M melanoma
NCI-H460 lung = system: NCI-H460 lung
OVCAR-5 ovarian = system: OVCAR-5 ovarian
SF-268 CNS = system: SF-268 CNS
SF-539 CNS = system: SF-539 CNS
SK-OV-3 ovarian = system: SK-OV-3 ovarian
HOP-62 NSCLC = system: HOP-62 NSCLC

Row | Compound | TGI (ACHN renal) | TGI (CCRF-CEM leukemia) | TGI (HCT-15 colon) | TGI (HL-60(TB) leukemia) | TGI (HT29 colon) | TGI (IGROV1 ovarian) | TGI (MALME-3M melanoma) | TGI (NCI-H460 lung) | TGI (OVCAR-5 ovarian) | TGI (SF-268 CNS) | TGI (SF-539 CNS) | TGI (SK-OV-3 ovarian) | TGI (HOP-62 NSCLC)
1 | CCOC(=O)/C(=C/c1ccco1)P(=O)(OCC)OCC | > 100 µM | > 100 µM | > 100 µM | > 100 µM | > 100 µM | > 100 µM | > 100 µM | > 100 µM | > 100 µM | > 100 µM | > 100 µM | > 100 µM | –
2 | Cc1cccc(NC(Nc2cccc(C)c2)=C(C(Cl)=C(Cl)Cl)[N+](=O)[O-])c1 | 43.1 µM | > 100 µM | 33.1 µM | – | > 54 µM | 20.3 µM | 29 µM | > 62.5 µM | > 72.1 µM | 30.6 µM | 23.4 µM | > 100 µM | 41.7 µM
3 | COC(=O)[C@H]1C=C[C@H](OC2OC(COC(C)=O)C(OC(C)=O)C(OC(C)=O)C2OC(C)=O)n2c(=O)n(-c3ccccc3)c(=O)n21 (stereo partly specified) | 3.08 µM | 16.3 µM | 3.55 µM | > 100 µM | 8.58 µM | 18.4 µM | – | 10.5 µM | 25.7 µM | > 47.1 µM | 4.44 µM | 32.6 µM | 21.1 µM
4 | COc1cc(OC)c(C2c3cc4c(cc3OC(N3CCOCC3)C2C)OCO4)c(OC)c1 (stereo unspecified) | 82.4 µM | > 100 µM | > 100 µM | – | > 100 µM | > 100 µM | – | > 100 µM | > 100 µM | > 100 µM | > 100 µM | – | > 100 µM
5 | C/C(=N\Nc1nc2ccccc2s1)c1cccnn1 | 17 µM | – | > 100 µM | – | > 100 µM | 15.5 µM | – | 15.1 µM | > 100 µM | 20.1 µM | 17.7 µM | 52.3 µM | 14.5 µM
6 | CCN(CC)C(=S)SS(=O)(=O)c1ccc(C)cc1 | > 100 µM | – | > 100 µM | – | 30.2 µM | – | 41.9 µM | > 100 µM | > 100 µM | > 100 µM | 39 µM | > 100 µM | 85.5 µM
7 | COC(=O)/C=C\S/C(=C(/c1ccccc1)n1ccc(C(=O)OC)n1)c1ccccc1 | 20.1 µM | – | > 100 µM | > 100 µM | > 100 µM | > 100 µM | 43.9 µM | > 100 µM | > 100 µM | 39.4 µM | > 100 µM | 50.8 µM | 50.4 µM
8 | NC(=S)N=Nc1c(O)cc(Nc2ccc(Cl)cc2Cl)c2ccccc12 | 27.5 µM | – | > 100 µM | > 100 µM | > 100 µM | 88 µM | – | > 100 µM | > 100 µM | > 100 µM | 53.4 µM | 61.5 µM | 22.4 µM
9 | C=C1CC=CC(C)(C)C1C/C=C(\C)C(O)CBr (stereo unspecified) | > 100 µM | > 100 µM | > 100 µM | > 100 µM | > 100 µM | > 100 µM | – | > 100 µM | > 100 µM | > 100 µM | > 100 µM | > 100 µM | > 100 µM
10 | COc1cc(/C=C/c2cc(=O)cc(/C=C/c3ccc(O)c(OC)c3)o2)ccc1O | > 100 µM | – | > 100 µM | > 100 µM | > 100 µM | > 100 µM | > 100 µM | > 100 µM | > 100 µM | > 100 µM | > 100 µM | > 100 µM | > 63.8 µM
11 | CCOP(=O)(OCC)c1cc(-c2ccccc2)ccc1N | > 100 µM | > 100 µM | > 100 µM | – | > 100 µM | > 100 µM | > 100 µM | > 100 µM | > 100 µM | > 100 µM | – | > 100 µM | > 100 µM
12 | COC(=O)C(CCCCNC(=O)CNC(=O)OCc1ccccc1)NC(=O)C(CCCCNC(=O)CNC(=O)OCc1ccccc1)NC(=O)OCc1ccccc1 (stereo unspecified) | > 100 µM | > 100 µM | > 100 µM | > 100 µM | > 100 µM | – | > 100 µM | > 100 µM | > 100 µM | > 100 µM | – | – | > 100 µM
13 | Brc1ccc2c(c1)-c1nc3c(cc1CC2)CCc1ccc(Br)cc1-3 | > 100 µM | > 100 µM | > 100 µM | – | – | > 100 µM | > 100 µM | > 100 µM | > 100 µM | > 100 µM | – | > 100 µM | > 100 µM
14 | O=c1oc2ccccc2c2nc3ccccc3cc12 | > 100 µM | > 100 µM | > 100 µM | > 100 µM | > 100 µM | > 100 µM | > 100 µM | > 100 µM | > 100 µM | – | 27.4 µM | > 100 µM | –
15 | COC1OC2COC(C)(C)OC2C2OC(C)(C)OC12 (stereo unspecified) | > 100 µM | 48.8 µM | > 100 µM | – | > 100 µM | > 100 µM | > 100 µM | – | > 100 µM | > 100 µM | – | > 100 µM | 61.1 µM
16 | CC/C=C\C/C=C\C/C=C\CCCCCCCC(=O)OC(COC(=O)CCCCCCCCCCCCCCCCC)COC1OC(CO)C(O)C(O)C1O (stereo unspecified) | > 25 µM | > 25 µM | > 25 µM | > 25 µM | > 25 µM | > 25 µM | – | > 25 µM | > 25 µM | > 25 µM | – | > 25 µM | > 25 µM
17 | COC(=O)c1sc2ncc3c(c2c1N)CC(C)CC3 (stereo unspecified) | > 100 µM | > 100 µM | > 100 µM | – | > 100 µM | > 100 µM | > 100 µM | > 100 µM | > 100 µM | > 100 µM | > 100 µM | > 100 µM | > 100 µM
18 | CC1=C(C(=O)NNC(=O)CC#N)CC(C(=O)NNC(=O)CC#N)=C(C)N1 | > 100 µM | – | > 100 µM | > 100 µM | > 100 µM | > 100 µM | – | > 100 µM | > 100 µM | > 100 µM | > 100 µM | > 100 µM | > 100 µM
19 | COc1ccc(N2C(=O)C3c4[nH]c5ccccc5c4C4C(C)CCCC4C3C2=O)cc1 (stereo unspecified) | > 100 µM | > 100 µM | > 100 µM | – | > 100 µM | > 100 µM | 52.6 µM | > 100 µM | > 100 µM | > 100 µM | > 82.8 µM | > 100 µM | > 96.2 µM
